According to US6255327A, “Diphenyl-substituted heterocycles, processes for preparing them and their use as pharmaceutical compositions” (Boehringer Ingelheim Pharma KG, priority 1998, dated 2001):

How the values were obtained:
[1] = target: "Na^+ channel site 2" binding site; assay: Affinity to the "Na^+ channel site 2" binding site; conditions: typically at a test concentration of 10 μM
Experimental: The testing was typically carried out at a test concentration of 10 μM.

AMPA receptor = assay: Inhibition of the cainate-induced signal at the AMPA receptor, electrophysiology on neuronal cells (patch-clamp method); format: cell-based; conditions: test concentration of 100 μM
Experimental: The testing was carried out at a test concentration of 100 μM.

neurones in mouse brains = conditions: after systemic administration; cited from earlier work

Row | Compound | Ki [1] | AMPA Inh. [%] (inhibition of the cainate-induced signal at the AMPA receptor) (AMPA receptor) | destruction of neurones in mouse brains (in words) (neurones in mouse brains)
1 | CN(C)CCOc1ccccc1-c1nc(-c2ccccc2)nn1C [Example 23, 5-{2-[2(N,N-dimethylamino)-ethyl]oxy-phenyl}-1-methyl-3-phenyl-1,2,4-triazole] | 1400 nM | – | –
2 | CN(C)CCOc1ccccc1-n1cnc(-c2ccccc2)n1 [Example 3, 1-{2-[2(N,N-Dimethylamino)ethyl]oxy-phenyl}-3-phenyl-1,2,4-triazole] | 3700 nM | 74% | –
3 | CN(C)CCOc1ccccc1N1C(=O)NC(c2ccccc2)C1=O (stereo not shown) [Example 19, 3-{2-[2(N,N-dimethylamino)ethyl]oxy-phenyl}-5-phenyl-imidazolidin-2,4-dione] | 550 nM | – | –
4 | CN(C)CCOc1ccccc1-c1cnc(-c2ccccc2)o1 [Example 10, 5-{2-[2(N,N-dimethylamino)ethyl]oxy-phenyl}-2-phenyl-1,3-oxazole] | 990 nM | 98% | –
5 | CN(C)CCOc1ccccc1-n1cc(-c2ccccc2)[nH]c1=O [Example 20, 1-{2-[2(N,N-dimethylamino)ethyl]oxy-phenyl}-4-phenyl-1,3-dihydro-imidazole-2-one] | 360 nM | – | –
6 | CN(C)CCOc1ccccc1C1NC(=O)N(c2ccccc2)C1=O (stereo not shown) [Example 21, 5-{2-[2(N,N-dimethylamino)ethyl]oxy-phenyl}-3-phenyl-imidazolidin-2,4-dione] | 710 nM | – | –
7 | CN(C)CCOc1ccccc1-c1cn(-c2ccccc2)c(=O)[nH]1 [Example 22, 4-{2-[2(N,N-dimethylamino)ethyl]oxy-phenyl}-1-phenyl-1,3-dihydro-imidazol-2-one] | 1300 nM | – | –
8 | CN(C)CCOc1ccccc1-c1ncn(-c2ccccc2)n1 [Example 5, 3-{2-[2(N,N-Dimethylamino)ethyl]oxy-phenyl}-1-phenyl-1,2,4-triazole] | 700 nM | 76% | –
9 | CN(C)CCOc1ccccc1-c1coc(-c2ccccc2)n1 [Example 8, 4-{2-[2(N,N-dimethylamino)ethyl]oxy-phenyl}-2-phenyl-1,3-oxazole] | 4600 nM | 77% | –
10 | COc1ccccc1-c1cnn(-c2ccccc2)c1 [Example 17, 4-(2-methoxyphenyl)-1-phenyl-pyrazole] | 390 nM | 53% | –
11 | N[C@@H](CCC(=O)O)C(=O)O [glutamate] | – | – | neurones are destroyed in mouse brains
12 | CN(C)CCOc1ccccc1-c1c[nH]c(-c2ccccc2)n1 [Example 9, 4-{2-[2(N,N-dimethylamino)ethyl]oxy-phenyl}-2-phenyl-imidazole] | 1800 nM | – | –
13 | CN(C)CCOc1ccccc1-c1ccc(-c2ccccc2)[nH]1 [Example 24, 2-{2-[2(N,N-dimethylamino)-ethyl]oxy-phenyl}-5-phenyl-pyrrole] | 460 nM | – | –
14 | c1ccc(-c2ncn(-c3ccccc3)n2)cc1 [Example 1, 1,3-Diphenyl-1,2,4-triazole] | – | 56% | –
15 | CN(C)CCOc1ccccc1-c1nn(-c2ccccc2)c(=O)o1 [Example 12, 5-{2-[2(N,N-dimethylamino)ethyl]oxy-phenyl}-3-phenyl-1,3,4-oxadiazol-2-one] | 990 nM | – | –
16 | CN(C)CCOc1ccccc1-c1n[nH]c(-c2ccccc2)n1 [Example 7, 3-{2-[2(N,N-Dimethylamino)ethyl]oxy-phenyl}-5-phenyl-1,2,4-triazole] | 1200 nM | 39% | –
17 | CN(C)CCOc1ccccc1-c1nc(-c2ccccc2)c[nH]1 [Example 25, 2-{2-[2(N,N-dimethylamino)-ethyl]-oxy-phenyl}-4-phenyl-imidazole] | 1300 nM | – | –
18 | COc1ccccc1-c1c[nH]c(-c2ccccc2)c1 [Example 13, 3-(2-methoxyphenyl)-5-phenyl-1H-pyrrole] | 1100 nM | – | –
19 | COc1ccccc1-n1cnc(-c2ccccc2)n1 [Example 2, 1-(2-methoxyphenyl)-3-phenyl-1,2,4-triazole] | – | 96% | –
